In patent US20020137781A1, “Preparation and use of enantiomer-pure 2,4-disubstituted oxazolines” (priority 1999, published 2002):

Legend:
Plutella xylostella = assay: Effect against Plutella xylostella caterpillars; assay type: in vivo; settings: 400 ppm spray on cabbage plants, third-instar caterpillars, three days
Procedure: Young cabbage plants are sprayed with an aqueous emulsion spray mixture containing 400 ppm of active ingredient. After the spray coating has dried on, the cabbage plants are colonised with 10 third-instar caterpillars of Plutella xylostella and placed in a plastic container. Three days later they are evaluated. The percentage reduction of the population and percentage reduction in feeding damage (% response) is determined by comparing the number of dead larvae and the extent of feeding damage on the treated plants with those on the untreated plants.

Heliothis virescens = assay: Ovicidal/larvicidal effect on Heliothis virescens; assay type: in vivo; settings: 400 ppm spray on eggs laid on cotton, after 8 days
Source text: Eggs of Heliothis virescens laid on cotton are sprayed with an aqueous emulsion spray mixture containing 400 ppm of active ingredient. After 8 days, the percentage hatching rate of the eggs and the survival rate of the caterpillars are compared with those for untreated controls (% reduction of population)

Panonychus ulmi = assay: Effect against Panonychus ulmi (resistant to organophosphates und carbaryl); assay type: in vivo; settings: 400 ppm spray on apple seedlings, after 14 days
Procedure: Apple seedlings are colonised with adult females of Panonychus ulmi. After seven days, the infected plants are sprayed with an aqueous emulsion spray mixture containing 400 ppm of the test compound until they are dripping wet, and cultivated in the greenhouse. After 14 days, they are evaluated. The percentage reduction of the population (% response) is determined by comparing the number of dead spider mites on the treated plants with those on the untreated plants.

Spodoptera littoralis = assay: Effect on Spodoptera littoralis; assay type: in vivo; settings: 400 ppm spray on soybean plants, third-instar larvae, three days
Procedure: Young soybean plants are sprayed with an aqueous emulsion spray mixture containing 400 ppm of active ingredient. After the spray deposit has dried, the plants are colonised with 10 third-instar larvae of Spodoptera littoralis and placed in a plastic container. Three days later they are evaluated. The percentage reduction of the population and of the feeding damage (% response) is determined by comparing the total number of dead caterpillars and the feeding damage on the treated plants with those on the untreated plants.

Aphis craccivora = assay: Effect against Aphis craccivora; assay type: in vivo; settings: 400 ppm spray on pea seedlings, 20° C., 3 and 6 days
Procedure: Pea seedlings are infected with Aphis craccivora, subsequently sprayed with a spray mixture containing 400 ppm of active ingredient, and then incubated at 20° C. 3 and 6 days later, they are evaluated. The percentage reduction of the population (% response) is determined by comparing the number of dead aphids on the treated plants with those on the untreated plants.

Crocidolomia binotalis = assay: Effect against Crocidolomia binotalis; assay type: in vivo; settings: 400 ppm spray on cabbage plants, third-instar caterpillars, three days
Procedure: Young cabbage plants are sprayed with an aqueous emulsion spray mixture containing 400 ppm of active ingredient. After the spray coating has dried on, the cabbage plants are colonised with 10 third-instar caterpillars of Crocidolomia binotalis and placed in a plastic container. Three days later they are evaluated. The percentage reduction of the population and of the feeding damage (% response) is determined by comparing the total number of dead caterpillars and the feeding damage on the treated plants with those on the untreated plants.

Boophilus microplus = assay: In vitro effect on Boophilus microplus; settings: 100 to 0.32 ppm; BIARRA and ULAM strain identical
Procedure: Four test series each of 10 engorged female adults of Boophilus microplus are stuck to a plastic plate and covered for 1 hour with a wad of cottonwool soaked with an aqueous suspension or emulsion of the test substance. The test is carried out with concentrations of 100, 32, 10, 3.2, 1.0 and 0.32 ppm. The wad of cottonwool is then removed, and the ticks are incubated for 28 days for the eggs to be laid. The effect on Boophilus microplus is assessed according to the following 5 criteria:
1. Number of dead females (immobile with black discoloration) before ovipositon;
2. Number of ticks surviving for several days, but no eggs laid;
3. Number of cases in which eggs are laid, but nothing is hatched;
This test is carried out with both the BIARRA and the ULAM strain, and the results in both cases are identical.

[1] = tested on: Musca domestica of an OP-resistant strain; assay: Effect against Musca domestica; assay type: in vivo; settings: 250 ppm in sugar cube, 25° C., after 24 hours, read-out: mortality rate (response)
Procedure: A sugar cube is treated with a solution of the test substance in such a way that the concentration of test substance in the sugar, after drying over night, is 250 ppm. The cube treated in this way is placed on an aluminium dish with wet cottonwool and 10 adult Musca domestica of an OP-resistant strain. It is covered with a beaker and incubated at 25° C. The mortality rate is determined after 24 hours.

Ctenocephalides felis = assay: In vitro effect on eggs, larvae, or pupae of the cat flea Ctenocephalides felis; settings: 15, 1.5, 0.15 and 0.015 ppm test solutions, after 21 days
Procedure: Acetonic test solutions are prepared containing test substances in concentrations of 15, 1.5, 0.15 and 0.015 ppm. 9.9 ml of each test solution is mixed with 14.85 g of culture medium for flea larvae and dried for about 12 hours. The slightly clumped, dry culture medium is mechanically pulverized again until it is homogeneous and free-flowing. It is then transferred to bottles for the breeding of fleas. To each bottle, 100 to 200 flea eggs are added, the bottles are loosely closed with a wad of cottonwool and placed in an incubator at 25 to 26° C. and a relative humidity of about 60%. After 21 days, the effect of the test substances in the different concentrations is evaluated and the lowest effective concentration determined using a stereomicroscope. The activity is evaluated on the basis of the hatching rate, larva development, pupation, and the hatching of young fleas. Enantiomers A of formula (I) show a pronounced effect in this test.

Fc1cccc(F)c1C1=NC(c2ccc(-c3ccc(C(F)(F)F)cc3)cc2)CO1 (single isomer, unassigned) [1.1, 2-(2,6-difluoro-phenyl)-4-(4′-trifluoromethylbiphenyl-4-yl)-4,5-dihydro-oxazole]
percentage reduction of the population and percentage reduction in feeding damage (% response) (Plutella xylostella): more than 80%
% reduction of population (hatching rate of eggs and survival rate of caterpillars) (Heliothis virescens): more than 80%
percentage reduction of the population (% response) (Panonychus ulmi): more than 80%
percentage reduction of the population and of the feeding damage (% response) (Spodoptera littoralis): more than 80%
percentage reduction of the population (% response) (Aphis craccivora): more than 80%
percentage reduction of the population and of the feeding damage (% response) (Crocidolomia binotalis): more than 80%
activity on Boophilus microplus (in words) (Boophilus microplus): most active test substance
mortality at 250 ppm [1]: > 80%
effect on hatching rate, larva development, pupation and hatching of young fleas (in words) (Ctenocephalides felis): most active test substance
